This assay deals with A1847 parental and CARM1 knockout cells. Briefly: Epigenetic targeting small molecule set screen (14-day colony formation). It is filed as cell-based, human. Conditions: 14 days, normalized to vehicle. The procedure: FIG. 26 illustrates that CARM1-expressing cells are selectively sensitized to EZH2 inhibitors. Equal number of parental control or CARM1 knockout […] cells were plated and treated with each of the 23 individual epigenetic inhibitors for 14 days. The media with the inhibitors was refreshed every 3 days. Cell growth was quantified as integrated density using NIH Image J software. Quantification of the average integrated density graphed as a scatter plot. The X-axis indicates the relative growth of treated CARM1 high parental […] cells compared with DMSO vehicle controls. Y-axis indicates the relative growth of treated CARM1 knockout […] cells compared with DMSO vehicle controls. n=4; and error bars represents SEM. FIG. 27 illustrates a table of EZH2 inhibitors that are selective against CARM1 expression. CARM1-high parental controls and CARM1 knockout […] cells were treated with the indicated concentration of the small molecules in a 14-day colony formation assay. Integrated density for each well was calculated using NIH Image J software. The relative growth of the indicated cells was determined by normalizing to the vehicle control treated cells. n=4 and p-value was calculated using a two-tailed t-test. […] parental and CARM1 knockout cells were plated in 24-well plates and treated with 24 epigenetic compounds. Cell medium was changed every three days with appropriate drug doses for 14 days or until control wells became confluent. Colonies were washed twice with PBS and fixed with 10% methanol and 10% acetic acid in distilled water. Fixed colonies were stained with 0.005% crystal violet. Integrated density was measured using NIH ImageJ software as a surrogate for cell growth.

The structures appear in SMILES notation. Entries after “also recorded” stand apart in the source; their conditions may differ.

On to `CC(=O)Nc1ccc(C(=O)Nc2ccccc2N)cc1` [CI994], for which the “selective growth suppression of CARM1-expressing vs CARM1 KO cells” value is “equally effective in suppressing the growth of both CARM-expressing and KO cells; also recorded: showed no difference between parental and CARM1 knockout cells”.

For the molecule `CCCc1cc(C)[nH]c(=O)c1CNC(=O)c1cc(-c2ccc(N3CCN(C(C)C)CC3)nc2)cc2c1cnn2C(C)C` [UNC1999, 1-isopropyl-6-(6-(4-isopropylpiperazin-1-yl)pyridin-3-yl)-N-((6-methyl-2-oxo-4-propyl-1,2-dihydropyridin-3-yl)methyl)-1H-indazole-4-carboxamide], the “selective growth suppression of CARM1-expressing vs CARM1 KO cells” value is on record as “showed selectivity against CARM1-expressing cells; also recorded: selectively sensitive”.

These data come from patent US12036222B2, “Methods of treating cancers overexpressing CARM1 with EZH2 inhibitors and a PARP inhibitor” (The Wistar Institut of Anatomy and Biology, priority 2018, dated 2024).
